Experiments:
[1] = system: BG-1 ovarian carcinoma cells; assay: BG-1 xenograft tumor growth in ovariectomized nu/nu mice; type: in vivo; settings: estradiol pellet alone; day 20; mean±SEM
Description: (§1) Cages, bedding, food, and water were autoclaved before use. […] Tumor size was measured every two days using calipers.
(§2) The in vivo effects of glyceollins on tumor growth formation were determined. MCF-7 or BG-1 cells were implanted into the mammary fat pad of female ovariectomized nude mice. Mice were divided into two groups: those animals implanted s.c. with estradiol pellets and those without. Tumors were implanted using Matrigel (reduced factor) to enhance tumor incidence and promote tumor growth in the presence and absence of estrogen. Glyceollins (or vehicle) were injected daily for 20 days. Measurable tumors were observed on Day 8 for both MCF-7 cells (FIG. 3) and BG-1 cells (FIG. 4). […] Estrogen stimulated the formation of rapidly growing tumors in both MCF-7 and BG-1 implanted mice, reaching a maximal size of 3074±843 mm^3 in MCF-7 and 3836±756 mm^3 in BG-1 implanted animals by day 20 of treatment. In the negative control animals (without estrogen pellets or glyceollins), tumor incidence occurred on […] and tumors grew slowly with a maximal size of 899±24 mm^3 for MCF-7 cells and 976±42 mm^3 for BG-1 cells on day 20 of treatment. […]
(§3) Data Analysis: Data for MCF-7N and BG-1 tumor size were analyzed separately using repeated measures two-way ANOVA with treatment and time as independent factors (SigmaStat 3.1). […]

[2] = system: MCF-7 breast carcinoma cell; assay: In vitro MCF-7 colony (clonogenicity) assay; type: cell-based, human; settings: estrogen treatment alone
Description: The MCF-7N cell variant is a subclone of MCF-7 cells from the American Type Culture Collection (Manassas, Va.) that was generously provided by Louise Nutter (University of Minnesota, Minneapolis, Minn.) and has been previously described (Graham et al., supra). The BG-1 cell line has been previously described. MCF-7 and BG-1 cells were grown in Dulbecco's modified minimal medium (pH 7.4; Life Technologies, Inc., Grand Island, N.Y.) supplemented with 10% fetal bovine serum (Hyclone, Salt Lake City, Utah). For studies with estrogen, the cells were cultured in medium supplemented with 5% charcoal-stripped fetal bovine serum. The cells were incubated at 37° C. in an atmosphere of 5% CO2 and air.
MCF-7 cells are plated at 10^3/well in 6 well Cluster dishes, and incubated overnight. Cells are cultured and treated in DMEM without phenol red; phenol red interacts with estrogen receptors. Treatment and control plates were incubated at 37° C., 5% CO2. Plates were observed periodically. When colonies were of a size of 50 cells or more, at Day 14, cells were fixed with glutaraldehyde for 30 min at 37° C., washed, and stained with Crystal violet (0.4%) for 1 hr. Colonies were counted manually. This method is used to study the effects of chemical or physical agents on cell survival and proliferation; 1 colony=1 cell. […]

[3] = system: progesterone receptor (PR); assay: Progesterone receptor immunohistochemistry in MCF-7 tumor explants; type: in vivo, mice; settings: treatment alone vs control; MCF-7 tumors
Description: (§4) Tumor explants were resected at necropsy, fixed in 70% ethanol, embedded in paraffin, and immunostained using a primary monoclonal antibody for human progesterone receptor (PR) (NCL-PGR, Novocastra, Newcastle-upon-Tyne, UK). Staining methods included antigen-retrieval with citrate buffer (pH 6.0), biotinylated rabbit anti-mouse Fc antibody as a linking reagent, alkaline phosphatase-conjugated streptavidin as the label, and Vector Red as the chromogen (Vector Laboratories, Burlingame, Calif.). Cell staining was quantified by a computer-assisted counting technique, using a grid filter to select cells for counting (Darvill et al., supra; Burow et al., supra). At least two microscopic fields were randomly selected for each tumor and 200 cells were counted at 40× magnification. Numbers of positively stained cells were expressed as a percentage of the total number examined. All measurements were made blinded to treatment group.
(§5) Progesterone receptor expression is an estrogen-sensitive marker driven by ER transactivation. In this study we used PR immunostaining to evaluate (a) whether glyceollin treatment alone was stimulating the ER as an agonist and (b) whether glyceollin treatment with estradiol (E2) was antagonizing ER activation.

[4] = system: MCF-7 breast carcinoma cells; assay: MCF-7 xenograft tumor growth in ovariectomized nu/nu mice; type: in vivo; settings: estradiol pellet alone; day 20; mean±SEM
Description: as §1, §2, §3

[5] = system: progesterone receptor (PR); assay: Progesterone receptor immunohistochemistry in BG1 tumor explants; type: in vivo, mice; settings: treatment alone vs control; BG1 tumors
Description: as §4, §5

Mouse uteri = assay: Uterine weight and morphology (uterotrophic assay) in nu/nu mice

Structure (SMILES) | tumor size (maximal) [1] | colony formation [2] | PR expression [3] | tumor size (maximal) [4] | PR expression [5] | uterine histology (Mouse uteri; H&E-stained uteri, treatment alone) | Uterine area, uterine diameter, and epithelial height (Mouse uteri; treatment alone vs control) | uterine fixed weight over control (Mouse uteri; treatment alone, 20 days)
C[C@]12CC[C@@H]3c4ccc(O)cc4CC[C@H]3[C@@H]1CC[C@@H]2O [Glyceollin E2, 17β-estradiol] | 3836±756 mm^3 | enhanced colony formation | significantly increased PR expression | 3074±843 mm^3 | significantly increased PR expression | markedly larger with epithelial pseudostratification, stromal edema and hyperplasia, and increased numbers of endometrial glands | significantly increased | 
CC/C(=C(\c1ccccc1)c1ccc(OCCN(C)C)cc1)c1ccccc1 [tamoxifen] |  |  |  |  |  |  |  | increase uterine fixed weight over control
